Values after ≈ are worked out from the molar mass of the structure shown.
How the values were obtained:
Type in all cases: functional
[1] = system: Ralstonia solanacearum; experiment: Antibacterial activity against Ralstonia solanacearum
[2] = system: Globisporangium ultimum; experiment: Growth inhibition of Pythium ultimum at 10 ug/ml; details: read-out: GI
[3] = system: Xanthomonas campestris pv. oryzae; experiment: Antibacterial activity against Xanthomonas campestris pv. oryzae
[4] = system: Pyricularia oryzae; experiment: Growth inhibition of Magnaporthe oryzae at 10 ug/ml; details: read-out: GI
[5] = system: Agrobacterium tumefaciens; experiment: Antibacterial activity against Agrobacterium tumefaciens
[6] = system: Fusarium oxysporum; experiment: Growth inhibition of Fusarium oxysporum at 10 ug/ml; details: read-out: GI
[7] = system: Bipolaris oryzae; experiment: Growth inhibition of Bipolaris oryzae at 10 ug/ml; details: read-out: GI
[8] = system: Gaeumannomyces graminis; experiment: Growth inhibition of Gaeumannomyces graminis at 10 ug/ml; details: read-out: GI
[9] = system: Pectobacterium carotovorum; experiment: Antibacterial activity against Pectobacterium carotovorum
[10] = system: Verticillium dahliae; experiment: Growth inhibition of Verticillium dahliae at 10 ug/ml; details: read-out: GI
[11] = system: Rhizoctonia solani; experiment: Growth inhibition of Rhizoctonia solani at 10 ug/ml; details: read-out: GI
[12] = system: Clavibacter michiganensis; experiment: Antibacterial activity against Clavibacter michiganensis
[13] = system: Colletotrichum gloeosporioides; experiment: Growth inhibition of Colletotrichum gloeosporioides at 100 uM after 48 hr by microtiter assay; details: read-out: GI
[14] = system: Colletotrichum acutatum; experiment: Growth inhibition of Colletotrichum acutatum at 300 uM after 48 hr by microtiter assay; details: read-out: GI
[15] = system: Colletotrichum fragariae; experiment: Growth inhibition of Colletotrichum fragariae at 300 uM after 48 hr by microtiter assay; details: read-out: GI
[16] = system: Plasmopara viticola; experiment: Growth inhibition of Plasmopara viticola at 30 uM after 48 hr by microtiter assay; details: read-out: GI
[17] = system: Phomopsis obscurans; experiment: Growth inhibition of Phomopsis obscurans at 30 uM after 48 hr by microtiter assay; details: Paraphomopsis obscurans, read-out: GI
[18] = system: Fusarium oxysporum; experiment: Growth inhibition of Fusarium oxysporum at 300 uM after 48 hr by microtiter assay; details: read-out: GI
[19] = system: Phomopsis obscurans; experiment: Growth inhibition of Phomopsis obscurans at 100 uM after 48 hr by microtiter assay; details: Paraphomopsis obscurans, read-out: GI

| Structure (SMILES) | MIC [1] | inhibition of growth at 10 µg/mL [2] | MIC [3] | inhibition of growth at 10 µg/mL [4] | MIC [5] | inhibition of growth at 10 µg/mL [6] | inhibition of growth at 10 µg/mL [7] | inhibition of growth at 10 µg/mL [8] | MIC [9] | inhibition of growth at 10 µg/mL [10] | inhibition of growth at 10 µg/mL [11] | MIC [12] | inhibition of growth at 300 µM [14] | inhibition of growth at 300 µM [15] | inhibition of growth at 300 µM [18] | further results |
| --- | --- | --- | --- | --- | --- | --- | --- | --- | --- | --- | --- | --- | --- | --- | --- | --- |
| CCCCCC/C=C/Cc1[nH]c2ccccc2c(=O)c1C | > 20 µg/mL | 0% | > 20 µg/mL | 49.9% | > 20 µg/mL | 41.1% | 68% | 54.7% | > 20 µg/mL | 74.9% | 58.1% | 10 µg/mL (≈ 35.3 µM) |  |  |  |  |
| Cn1c(CCCCCCc2ccc3c(c2)OCO3)cc(=O)c2ccccc21 |  |  |  |  |  |  |  |  |  |  |  |  | 57% | 57% |  | inhibition of growth at 100 µM [13]: 67.7%; inhibition of growth at 30 µM [16]: 100%; inhibition of growth at 30 µM [17]: 100% |
| CCCCCCCCCc1cc(=O)c2ccccc2[nH]1 |  |  |  |  |  |  |  |  |  |  |  |  | 50% |  | 37% |  |
| CCCC/C=C/Cc1[nH]c2ccccc2c(=O)c1C | > 50 µg/mL | 37.7% | 50 µg/mL (≈ 196 µM) | 70.8% | > 50 µg/mL | 34.4% | 63.9% | 17.1% | > 50 µg/mL | 82.8% | 50.9% | 10 µg/mL (≈ 39.2 µM) |  |  |  |  |
| CCCCNC(=O)n1c(NC(=O)OC)nc2ccccc21 [BENOMYL] |  |  |  |  |  |  |  |  |  |  |  |  | 33% | 76% | 77% | inhibition of growth at 100 µM [19]: 100% |
| O=C1C2CC=CCC2C(=O)N1SC(Cl)(Cl)Cl (stereo unspecified) [CAPTAN] |  |  |  |  |  |  |  |  |  |  |  |  |  |  | 100% |  |

Reference: ChEMBL document CHEMBL3044533, “Alkyl, aryl, alkylarylquinoline, and related alkaloids” (2007)
